# From patent US9266878B2, “Phosphatidylinositol 3-kinase inhibitors” (Gilead Calistoga LLC, priority 2012, dated 2016)
# Columns and labels:
# Experiment in all cases: Enzymatic activity of PI3K isoforms, TR-FRET assay (PIP3 formation)
# Format in all cases: biochemical
# PI3Kα = PI3Kα (Homo sapiens (Human), UniProt P42336); details: bound given in uM
# Procedure, shortened: (§1)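 Heterodimeric recombinant class I PI3K; PIP3 product displaces labeled PIP3 from GRP-1 PH domain, lowering TR-FRET. Reaction 30 min at 25° C, stopped with 10 mM EDTA, 10 nM labeled-PIP3, 35 nM Eu-GRP-1. Read Ex 340 nm, Em 615/665 nm; IC50 in nM.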
# PI3Kδ = PI3Kδ (Homo sapiens (Human), UniProt O00329); details: bound given in nM
# Procedure, shortened: as §1
# PI3Kγ = PI3Kγ (Homo sapiens (Human), UniProt P48736); details: bound given in uM
# Procedure, shortened: (§2)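 Recombinant heterodimeric class I PI3K enzymes were assayed by TR-FRET. PIP3 product displaces fluorescently labelled PIP3 from the GRP-1 PH domain, lowering the signal; IC50 values are given in nM.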
# PI3Kβ = PI3Kβ (Homo sapiens (Human), UniProt P42338); details: bound given in uM
# Procedure, shortened: as §2
# Chain of PI3Kγ (P48736 whole entry, the tested form may be a part): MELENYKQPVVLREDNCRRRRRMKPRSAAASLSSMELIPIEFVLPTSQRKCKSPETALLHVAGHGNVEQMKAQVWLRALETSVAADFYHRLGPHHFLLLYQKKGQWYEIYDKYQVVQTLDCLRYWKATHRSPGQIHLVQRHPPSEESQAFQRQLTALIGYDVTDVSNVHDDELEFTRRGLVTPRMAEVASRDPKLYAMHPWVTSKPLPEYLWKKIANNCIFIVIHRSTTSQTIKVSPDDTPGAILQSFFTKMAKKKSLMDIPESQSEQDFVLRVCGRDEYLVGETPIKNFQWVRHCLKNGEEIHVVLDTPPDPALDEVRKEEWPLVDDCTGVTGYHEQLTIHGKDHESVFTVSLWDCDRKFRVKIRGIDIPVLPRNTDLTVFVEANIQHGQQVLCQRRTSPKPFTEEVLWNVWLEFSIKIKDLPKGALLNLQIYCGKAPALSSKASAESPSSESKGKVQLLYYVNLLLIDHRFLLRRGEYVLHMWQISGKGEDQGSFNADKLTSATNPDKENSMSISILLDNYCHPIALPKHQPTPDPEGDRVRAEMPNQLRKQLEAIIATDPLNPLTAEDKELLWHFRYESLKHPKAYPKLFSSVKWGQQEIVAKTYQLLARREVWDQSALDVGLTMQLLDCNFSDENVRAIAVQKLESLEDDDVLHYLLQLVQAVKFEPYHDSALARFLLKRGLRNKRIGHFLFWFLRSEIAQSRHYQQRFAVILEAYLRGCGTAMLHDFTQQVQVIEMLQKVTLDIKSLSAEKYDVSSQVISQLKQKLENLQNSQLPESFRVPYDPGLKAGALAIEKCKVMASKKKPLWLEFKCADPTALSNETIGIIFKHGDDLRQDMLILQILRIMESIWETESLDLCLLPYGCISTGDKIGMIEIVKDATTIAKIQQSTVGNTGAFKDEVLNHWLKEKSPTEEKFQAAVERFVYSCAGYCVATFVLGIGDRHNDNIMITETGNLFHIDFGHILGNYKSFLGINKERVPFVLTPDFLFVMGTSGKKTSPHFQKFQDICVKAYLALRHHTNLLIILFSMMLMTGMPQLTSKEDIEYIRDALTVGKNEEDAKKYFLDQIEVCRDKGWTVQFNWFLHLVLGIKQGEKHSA
# Chain of PI3Kγ (Q8WYR1 whole entry partner, the tested form may be a part): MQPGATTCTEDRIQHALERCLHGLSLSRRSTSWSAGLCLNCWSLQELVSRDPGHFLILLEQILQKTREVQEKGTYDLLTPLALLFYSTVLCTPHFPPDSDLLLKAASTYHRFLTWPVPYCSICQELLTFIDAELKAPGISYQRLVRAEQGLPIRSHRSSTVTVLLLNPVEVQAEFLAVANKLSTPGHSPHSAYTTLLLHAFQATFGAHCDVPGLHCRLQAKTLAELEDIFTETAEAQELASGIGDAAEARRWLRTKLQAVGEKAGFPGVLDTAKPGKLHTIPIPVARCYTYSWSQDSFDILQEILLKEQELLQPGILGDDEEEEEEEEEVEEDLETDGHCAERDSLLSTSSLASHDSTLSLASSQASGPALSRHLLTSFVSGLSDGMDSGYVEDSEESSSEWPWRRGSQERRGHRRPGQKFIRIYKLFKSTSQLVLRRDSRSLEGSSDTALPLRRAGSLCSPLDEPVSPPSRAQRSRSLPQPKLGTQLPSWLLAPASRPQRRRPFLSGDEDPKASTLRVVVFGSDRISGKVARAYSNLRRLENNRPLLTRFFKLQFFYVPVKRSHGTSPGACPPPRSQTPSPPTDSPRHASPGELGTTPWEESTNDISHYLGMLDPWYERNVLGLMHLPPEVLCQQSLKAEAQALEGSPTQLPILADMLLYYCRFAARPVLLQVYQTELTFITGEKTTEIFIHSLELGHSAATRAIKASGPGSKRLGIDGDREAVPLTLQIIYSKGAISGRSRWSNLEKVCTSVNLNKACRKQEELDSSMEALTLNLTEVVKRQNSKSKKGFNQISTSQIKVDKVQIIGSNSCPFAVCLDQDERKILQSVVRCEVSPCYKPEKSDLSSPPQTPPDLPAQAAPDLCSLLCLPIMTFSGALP
# Chain of PI3Kδ (O00329 whole entry): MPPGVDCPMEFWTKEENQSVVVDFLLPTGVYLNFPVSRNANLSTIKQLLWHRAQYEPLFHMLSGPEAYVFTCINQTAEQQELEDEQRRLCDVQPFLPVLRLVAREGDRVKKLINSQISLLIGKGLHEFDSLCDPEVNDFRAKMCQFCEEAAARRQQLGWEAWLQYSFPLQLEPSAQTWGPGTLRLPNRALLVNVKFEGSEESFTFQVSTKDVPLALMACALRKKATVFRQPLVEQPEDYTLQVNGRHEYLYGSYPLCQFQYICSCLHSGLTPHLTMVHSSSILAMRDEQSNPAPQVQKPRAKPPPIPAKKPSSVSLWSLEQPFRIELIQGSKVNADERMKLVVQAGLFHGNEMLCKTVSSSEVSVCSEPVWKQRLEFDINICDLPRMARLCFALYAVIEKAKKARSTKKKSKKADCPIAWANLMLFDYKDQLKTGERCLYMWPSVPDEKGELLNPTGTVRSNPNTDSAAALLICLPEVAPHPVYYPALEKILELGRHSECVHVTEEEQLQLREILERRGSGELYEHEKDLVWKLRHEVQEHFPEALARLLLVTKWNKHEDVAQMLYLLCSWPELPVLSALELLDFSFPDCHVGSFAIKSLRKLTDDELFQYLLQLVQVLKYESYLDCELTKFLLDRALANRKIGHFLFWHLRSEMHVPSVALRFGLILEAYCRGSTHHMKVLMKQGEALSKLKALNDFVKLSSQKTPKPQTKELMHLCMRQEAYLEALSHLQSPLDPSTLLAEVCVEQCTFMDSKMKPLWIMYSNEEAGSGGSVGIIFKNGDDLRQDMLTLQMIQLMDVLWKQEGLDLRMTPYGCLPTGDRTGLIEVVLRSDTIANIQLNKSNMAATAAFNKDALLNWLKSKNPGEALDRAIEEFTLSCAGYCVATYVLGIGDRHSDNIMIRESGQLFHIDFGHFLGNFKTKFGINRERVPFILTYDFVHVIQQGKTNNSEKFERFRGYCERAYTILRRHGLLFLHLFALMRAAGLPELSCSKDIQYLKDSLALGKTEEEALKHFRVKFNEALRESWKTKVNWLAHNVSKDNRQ
# Chain of PI3Kδ (P27986 whole entry partner): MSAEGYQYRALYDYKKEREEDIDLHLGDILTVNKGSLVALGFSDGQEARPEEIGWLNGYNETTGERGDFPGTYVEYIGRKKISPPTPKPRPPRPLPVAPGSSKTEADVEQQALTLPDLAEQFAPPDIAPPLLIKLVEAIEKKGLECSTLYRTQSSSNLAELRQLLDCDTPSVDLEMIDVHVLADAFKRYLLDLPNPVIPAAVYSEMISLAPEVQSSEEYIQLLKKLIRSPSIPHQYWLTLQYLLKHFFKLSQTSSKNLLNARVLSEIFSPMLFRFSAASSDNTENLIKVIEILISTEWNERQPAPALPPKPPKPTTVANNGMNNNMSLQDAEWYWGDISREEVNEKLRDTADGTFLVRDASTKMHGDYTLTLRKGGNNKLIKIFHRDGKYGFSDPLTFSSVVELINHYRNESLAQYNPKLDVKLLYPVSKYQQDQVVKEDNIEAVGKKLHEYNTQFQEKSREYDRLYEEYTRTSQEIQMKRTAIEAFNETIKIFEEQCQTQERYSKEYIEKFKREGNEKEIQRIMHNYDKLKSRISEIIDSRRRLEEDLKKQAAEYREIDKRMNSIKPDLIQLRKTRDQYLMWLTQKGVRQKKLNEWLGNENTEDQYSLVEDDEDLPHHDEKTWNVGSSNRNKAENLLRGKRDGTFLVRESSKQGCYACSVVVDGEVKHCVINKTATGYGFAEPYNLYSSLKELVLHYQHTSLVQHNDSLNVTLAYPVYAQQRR
# Chain of PI3Kβ (P42338 whole entry): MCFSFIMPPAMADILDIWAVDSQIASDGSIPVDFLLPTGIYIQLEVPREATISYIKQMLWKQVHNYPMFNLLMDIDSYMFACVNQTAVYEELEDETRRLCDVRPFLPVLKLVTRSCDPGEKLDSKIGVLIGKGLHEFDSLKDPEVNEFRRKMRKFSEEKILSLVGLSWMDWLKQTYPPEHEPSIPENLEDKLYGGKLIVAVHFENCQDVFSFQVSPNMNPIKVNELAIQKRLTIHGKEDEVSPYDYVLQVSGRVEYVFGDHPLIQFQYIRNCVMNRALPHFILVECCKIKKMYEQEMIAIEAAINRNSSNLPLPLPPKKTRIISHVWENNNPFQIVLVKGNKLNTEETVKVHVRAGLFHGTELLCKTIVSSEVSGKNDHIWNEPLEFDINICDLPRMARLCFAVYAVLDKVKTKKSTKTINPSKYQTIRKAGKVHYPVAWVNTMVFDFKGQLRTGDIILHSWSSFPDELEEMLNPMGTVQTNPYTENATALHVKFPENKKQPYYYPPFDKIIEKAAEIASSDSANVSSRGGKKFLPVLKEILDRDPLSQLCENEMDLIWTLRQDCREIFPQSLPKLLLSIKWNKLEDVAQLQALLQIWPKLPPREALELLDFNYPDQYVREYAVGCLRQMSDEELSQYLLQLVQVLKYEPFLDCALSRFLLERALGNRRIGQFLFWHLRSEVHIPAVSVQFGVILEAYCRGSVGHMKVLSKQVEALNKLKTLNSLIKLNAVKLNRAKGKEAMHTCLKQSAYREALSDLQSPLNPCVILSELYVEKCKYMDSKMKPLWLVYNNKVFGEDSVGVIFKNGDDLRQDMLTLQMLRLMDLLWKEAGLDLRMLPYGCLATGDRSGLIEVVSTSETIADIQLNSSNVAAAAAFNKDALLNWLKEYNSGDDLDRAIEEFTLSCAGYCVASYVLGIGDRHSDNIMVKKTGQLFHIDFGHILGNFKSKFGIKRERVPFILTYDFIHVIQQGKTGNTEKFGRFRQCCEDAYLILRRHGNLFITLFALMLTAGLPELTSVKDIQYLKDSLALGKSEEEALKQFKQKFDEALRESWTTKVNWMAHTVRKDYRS
# Chain of PI3Kβ (P27986 whole entry partner): as the sequence (P27986 whole entry partner) above
Structure (SMILES),IC50 (PI3Kα),IC50 (PI3Kδ),IC50 (PI3Kγ),IC50 (PI3Kβ)
"Cc1cccc2c(=O)n(-c3ccccc3)c([C@H](C)Nc3ncnc(N)c3C#Cc3ccc(F)cn3)nc12 [Compound 56a, (S)-2-(1-((6-amino-5-((5-fluoropyridin-2-yl)ethynyl)pyrimidin-4-yl)amino)ethyl)-8-methyl-3-phenylquinazolin-4(3H)-one]",> 1 µM,< 100 nM,> 1 µM,> 1 µM
"C[C@H](Nc1ncnc(N)c1C#Cc1ccc(F)cn1)c1nc2cccc(C(F)F)c2c(=O)n1-c1cccc(C#N)c1 [Compound 70a, (S)-3-(2-(1-((6-amino-5-((5-fluoropyridin-2-yl)ethynyl)pyrimidin-4-yl)amino)ethyl)-5-(difluoromethyl)-4-oxoquinazolin-3(4H)-yl)benzonitrile]",> 1 µM,< 100 nM,> 1 µM,> 1 µM
"C[C@H](Nc1ncnc(N)c1C#Cc1cnccn1)c1nc2ccc(F)cc2c(=O)n1-c1cccc(Cl)c1 [Compound 97a, (S)-2-(1-((6-amino-5-(pyrazin-2-ylethynyl)pyrimidin-4-yl)amino)ethyl)-3-(3-chlorophenyl)-6-fluoroquinazolin-4(3H)-one]",> 1 µM,< 100 nM,> 1 µM,> 1 µM
"C[C@H](Nc1ncnc(N)c1C#Cc1ccc(F)cn1)c1nc2cccc(F)c2c(=O)n1-c1cc(F)cc(F)c1 [Compound 7a, (S)-2-(1-(6-amino-5-((5-fluoropyridin-2-yl)ethynyl)pyrimidin-4-ylamino)ethyl)-3-(3,5-difluorophenyl)-5-fluoroquinazolin-4(3H)-one]",> 1 µM,< 100 nM,> 1 µM,> 1 µM
"COc1cc(F)cc(C#Cc2c(N)ncnc2N[C@@H](C)c2nc3cccc(F)c3c(=O)n2-c2ccccc2)c1 [Compound 65a, (S)-2-(1-((6-amino-5-((3-fluoro-5-methoxyphenyl)ethynyl)pyrimidin-4-yl)amino)ethyl)-5-fluoro-3-phenylquinazolin-4(3H)-one]",> 1 µM,< 100 nM,> 1 µM,> 1 µM
"C[C@H](Nc1ncnc(N)c1C#Cc1ccc(F)cn1)c1nc2ccc(F)cc2c(=O)n1-c1cccc(C#N)c1 [Compound 94a, (S)-3-(2-(1-((6-amino-5-((5-fluoropyridin-2-yl)ethynyl)pyrimidin-4-yl)amino)ethyl)-6-fluoro-4-oxoquinazolin-3(4H)-yl)benzonitrile]",> 1 µM,< 100 nM,> 1 µM,> 1 µM
"C[C@H](Nc1ncnc(N)c1C#Cc1cnccn1)c1nc2ccc(F)cc2c(=O)n1-c1cccc(C#N)c1 [Compound 95a, (S)-3-(2-(1-((6-amino-5-(pyrazin-2-ylethynyl)pyrimidin-4-yl)amino)ethyl)-6-fluoro-4-oxoquinazolin-3(4H)-yl)benzonitrile]",> 1 µM,< 100 nM,> 1 µM,> 1 µM
"C[C@H](Nc1ncnc(N)c1C#Cc1cncnc1)c1nc2cccc(Cl)c2c(=O)n1-c1cc(F)cc(F)c1 [Compound 41a, (S)-2-(1-(6-amino-5-(pyrimidin-5-ylethynyl)pyrimidin-4-ylamino)ethyl)-5-chloro-3-(3,5-difluorophenyl)quinazolin-4(3H)-one]",> 1 µM,< 100 nM,> 1 µM,> 1 µM
"CCCCc1cccc(-n2c([C@H](C)Nc3ncnc(N)c3C#Cc3ccc(F)cn3)nc3cccc(Cl)c3c2=O)c1 [Compound 57a, (S)-2-(1-((6-amino-5-((5-fluoropyridin-2-yl)ethynyl)pyrimidin-4-yl)amino)ethyl)-3-(3-butylphenyl)-5-chloroquinazolin-4(3H)-one]",> 1 µM,< 100 nM,> 1 µM,> 1 µM
"C[C@H](Nc1ncnc(N)c1C#Cc1ccc(F)cn1)c1nc2cccc(Cl)c2c(=O)n1-c1cccc(C#N)c1 [Compound 92a, (S)-3-(2-(1-((6-amino-5-((5-fluoropyridin-2-yl)ethynyl)pyrimidin-4-yl)amino)ethyl)-5-chloro-4-oxoquinazolin-3(4H)-yl)benzonitrile]",> 1 µM,< 100 nM,> 1 µM,> 1 µM
COc1cccc(-n2c([C@H](C)Nc3ncnc(N)c3C#Cc3ncccc3F)nc3cccc(Cl)c3c2=O)c1C [81-2a],> 1 µM,< 100 nM,> 1 µM,> 1 µM
"C[C@H](Nc1ncnc(N)c1C#C[C@@H](C)O)c1nc2cccc(Cl)c2c(=O)n1-c1ccccc1 [Compound 19a, 2-((S)-1-(6-amino-5-((R)-3-hydroxybut-1-ynyl)pyrimidin-4-ylamino)ethyl)-5-chloro-3-phenylquinazolin-4(3H)-one]",> 1 µM,< 100 nM,> 1 µM,> 1 µM
"C[C@H](Nc1ncnc(N)c1C#Cc1ccccc1)c1nc2cccc(F)c2c(=O)n1-c1cccc(C#N)c1 [Compound 110a, (S)-3-(2-(1-((6-amino-5-(phenylethynyl)pyrimidin-4-yl)amino)ethyl)-5-fluoro-4-oxoquinazolin-3(4H)-yl)benzonitrile]",> 1 µM,< 100 nM,> 1 µM,> 1 µM
